Measured values reported in publication PMC10930102 (Journal of Enzyme Inhibition and Medicinal Chemistry, 2024).

Legend:
HDAC1 = molecular target: T1, HDAC1 (Homo sapiens, UniProt Q13547); assay: HDAC inhibition assay (fluorogenic peptide, Reaction Biology); type: biochemical; details: tested once, ten-dose starting at 30 µM
T1 construct: purchased Reaction Biology Corporation; host or cells: baculovirus expression system in SF9 cells

HDAC6 = molecular target: T2, HDAC6 (Homo sapiens, UniProt Q9UBN7); assay: as above; type: biochemical; details: tested once, ten-dose starting at 30 µM
T2 construct: purchased Reaction Biology Corporation; host or cells: baculovirus expression system in SF9 cells
T2 sequence (Q9UBN7 1-1215): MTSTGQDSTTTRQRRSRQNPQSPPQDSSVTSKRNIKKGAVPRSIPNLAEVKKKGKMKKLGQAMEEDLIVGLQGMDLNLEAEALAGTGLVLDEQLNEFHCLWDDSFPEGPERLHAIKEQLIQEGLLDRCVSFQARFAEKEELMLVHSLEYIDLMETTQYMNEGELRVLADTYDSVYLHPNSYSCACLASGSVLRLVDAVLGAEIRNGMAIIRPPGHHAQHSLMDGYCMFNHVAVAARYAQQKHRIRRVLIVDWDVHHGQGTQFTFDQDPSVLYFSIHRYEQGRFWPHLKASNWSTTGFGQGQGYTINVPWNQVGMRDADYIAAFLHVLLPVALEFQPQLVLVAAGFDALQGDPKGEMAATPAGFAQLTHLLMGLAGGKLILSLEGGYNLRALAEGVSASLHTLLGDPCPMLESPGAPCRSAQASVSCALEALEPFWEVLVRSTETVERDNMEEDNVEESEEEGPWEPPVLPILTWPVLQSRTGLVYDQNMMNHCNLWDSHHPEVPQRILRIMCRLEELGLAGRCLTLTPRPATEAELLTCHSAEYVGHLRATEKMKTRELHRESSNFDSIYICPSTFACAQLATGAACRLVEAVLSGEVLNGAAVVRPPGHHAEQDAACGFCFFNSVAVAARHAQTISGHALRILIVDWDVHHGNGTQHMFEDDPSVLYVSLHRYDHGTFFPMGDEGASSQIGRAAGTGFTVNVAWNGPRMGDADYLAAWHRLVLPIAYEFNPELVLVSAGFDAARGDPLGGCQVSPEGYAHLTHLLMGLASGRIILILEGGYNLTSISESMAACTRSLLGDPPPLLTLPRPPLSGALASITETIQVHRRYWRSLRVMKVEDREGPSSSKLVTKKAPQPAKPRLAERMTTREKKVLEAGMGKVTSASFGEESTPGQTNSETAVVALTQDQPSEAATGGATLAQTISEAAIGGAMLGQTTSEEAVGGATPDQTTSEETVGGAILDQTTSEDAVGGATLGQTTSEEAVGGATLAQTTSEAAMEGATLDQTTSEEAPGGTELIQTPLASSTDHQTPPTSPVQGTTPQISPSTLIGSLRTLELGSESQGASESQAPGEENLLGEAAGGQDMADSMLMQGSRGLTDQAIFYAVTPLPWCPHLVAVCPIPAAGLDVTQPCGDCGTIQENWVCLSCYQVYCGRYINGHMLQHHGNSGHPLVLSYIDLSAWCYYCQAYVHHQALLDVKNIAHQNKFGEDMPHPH

MCF7 = assay: SRB antiproliferation assay; type: cell-based; details: Homo sapiens, 48 h, read-out: Antiproliferative activity (IC50) MCF7
c-Src = molecular target: T3, c-Src (Homo sapiens, UniProt P12931); assay: RTK in vitro enzymatic assay; type: biochemical; details: 20 μM ATP
T3 construct: purchased Reaction Biology Corporation
T3 sequence (P12931 whole entry): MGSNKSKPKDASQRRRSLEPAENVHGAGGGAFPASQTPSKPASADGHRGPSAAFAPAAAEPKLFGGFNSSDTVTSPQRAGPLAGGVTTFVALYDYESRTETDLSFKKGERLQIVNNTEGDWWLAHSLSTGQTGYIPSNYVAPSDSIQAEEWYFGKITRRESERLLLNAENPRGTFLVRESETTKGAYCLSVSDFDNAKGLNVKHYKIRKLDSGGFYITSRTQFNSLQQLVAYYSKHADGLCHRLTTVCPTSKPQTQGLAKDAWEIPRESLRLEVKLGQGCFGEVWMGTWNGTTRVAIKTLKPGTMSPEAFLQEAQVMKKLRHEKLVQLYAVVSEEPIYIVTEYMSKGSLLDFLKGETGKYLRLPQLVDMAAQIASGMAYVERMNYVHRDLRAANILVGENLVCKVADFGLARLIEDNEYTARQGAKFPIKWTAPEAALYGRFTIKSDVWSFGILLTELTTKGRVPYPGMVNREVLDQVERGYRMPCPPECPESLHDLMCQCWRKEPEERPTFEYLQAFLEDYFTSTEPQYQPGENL

ALK F1174L = molecular target: T4, ALK F1174L (Homo sapiens, UniProt Q9UM73, F1174L); assay: ALK mutant in vitro enzymatic assay; type: biochemical; details: 20 μM ATP
T4 construct: purchased Reaction Biology Corporation
T4 sequence (Q9UM73 19-1620 F1174L): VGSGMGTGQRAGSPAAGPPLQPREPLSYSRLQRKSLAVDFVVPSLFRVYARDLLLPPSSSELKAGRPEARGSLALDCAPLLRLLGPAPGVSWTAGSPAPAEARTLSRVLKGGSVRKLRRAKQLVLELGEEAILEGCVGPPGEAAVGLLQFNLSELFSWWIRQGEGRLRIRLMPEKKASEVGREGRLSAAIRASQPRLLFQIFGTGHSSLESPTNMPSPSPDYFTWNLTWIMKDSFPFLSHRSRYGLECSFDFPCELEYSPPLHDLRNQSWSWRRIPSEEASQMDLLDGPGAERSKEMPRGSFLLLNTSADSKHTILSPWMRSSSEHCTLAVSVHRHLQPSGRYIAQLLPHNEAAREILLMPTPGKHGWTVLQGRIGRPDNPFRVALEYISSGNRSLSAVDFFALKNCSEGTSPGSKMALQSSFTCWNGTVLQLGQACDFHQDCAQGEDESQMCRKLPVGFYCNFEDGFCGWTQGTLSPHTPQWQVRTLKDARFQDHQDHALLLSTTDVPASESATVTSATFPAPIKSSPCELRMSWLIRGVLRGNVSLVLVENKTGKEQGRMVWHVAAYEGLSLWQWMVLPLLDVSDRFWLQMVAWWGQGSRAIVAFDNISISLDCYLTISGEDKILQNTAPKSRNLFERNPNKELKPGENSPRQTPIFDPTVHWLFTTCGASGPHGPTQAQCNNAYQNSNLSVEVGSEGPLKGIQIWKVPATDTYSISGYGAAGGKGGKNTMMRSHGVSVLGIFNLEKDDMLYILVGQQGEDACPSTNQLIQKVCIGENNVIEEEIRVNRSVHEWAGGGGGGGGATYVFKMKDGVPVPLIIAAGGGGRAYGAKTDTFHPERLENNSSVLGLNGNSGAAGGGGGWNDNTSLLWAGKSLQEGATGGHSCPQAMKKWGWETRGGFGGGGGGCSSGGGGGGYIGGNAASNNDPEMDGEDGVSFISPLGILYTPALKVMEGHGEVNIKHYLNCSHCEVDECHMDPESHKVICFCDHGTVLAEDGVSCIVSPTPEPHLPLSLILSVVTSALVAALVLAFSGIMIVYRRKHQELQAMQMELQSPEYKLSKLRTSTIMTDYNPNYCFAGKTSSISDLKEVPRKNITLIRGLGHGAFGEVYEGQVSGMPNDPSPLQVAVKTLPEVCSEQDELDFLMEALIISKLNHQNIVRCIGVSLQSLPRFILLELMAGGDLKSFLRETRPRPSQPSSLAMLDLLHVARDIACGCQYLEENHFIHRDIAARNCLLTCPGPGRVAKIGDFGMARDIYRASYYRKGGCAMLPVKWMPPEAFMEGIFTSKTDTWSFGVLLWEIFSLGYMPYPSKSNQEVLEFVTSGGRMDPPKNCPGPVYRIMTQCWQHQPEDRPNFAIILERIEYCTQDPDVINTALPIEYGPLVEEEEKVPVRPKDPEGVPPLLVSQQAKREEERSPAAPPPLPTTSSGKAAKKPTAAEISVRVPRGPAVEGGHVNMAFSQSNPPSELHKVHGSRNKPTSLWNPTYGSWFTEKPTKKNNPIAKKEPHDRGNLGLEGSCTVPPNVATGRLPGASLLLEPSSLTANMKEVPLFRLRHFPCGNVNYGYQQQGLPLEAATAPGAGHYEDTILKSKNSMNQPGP

ALK G1202R = molecular target: T5, ALK G1202R (Homo sapiens, UniProt Q9UM73, G1202R); assay: ALK mutant in vitro enzymatic assay; type: biochemical; details: 20 μM ATP
T5 construct: purchased Reaction Biology Corporation
T5 sequence (Q9UM73 19-1620 G1202R): as the sequence (Q9UM73 19-1620 F1174L) above, with L1156F, G1184R counted along it

ALK G1269A = molecular target: T6, ALK G1269A (Homo sapiens, UniProt Q9UM73, G1269A); assay: ALK mutant in vitro enzymatic assay; type: biochemical; details: 20 μM ATP
T6 construct: purchased Reaction Biology Corporation
T6 sequence (Q9UM73 19-1620 G1269A): as the sequence (Q9UM73 19-1620 F1174L) above, with L1156F, G1251A counted along it

[1] = test system: acetylation level of α-tubulin, a substrate of HDAC6; assay: Western blot of acetylated α-tubulin in H2228 cells; type: cell-based, human; details: 6 h, 3b 2 µM
Source text: Figure 4. Effect of test compounds on H2228 cells. […] (A) Western blots of phosphorylated tyrosine residue 1640 on ALK as well as acetylated (Ac) α-tubulin and histone H3 with their corresponding total proteins for normalisation. GAPDH was used as a loading control. (B) Quantification of western blotting results using Image J. Error bars indicate ± S.D.E. *p-Value ≤ 0.05, **p-value ≤ 0.01, ***p-value ≤ 0.001.
Treated cells were washed three times with ice-cold phosphate-buffered saline and lysed in lysis buffer containing 100 mM Tris-HCl, 12 mM sodium deoxycholate, 12 mM sodium lauroylsarcosinate, and protease inhibitor cocktail (BioTools). Cells were heated in lysis buffer at 95 °C for 5 min and then the cell membrane was broken up by sonication (Bioruptor). Cellular debris and unbroken cells were removed by centrifugation (12,500 × g for 30 min, 4 °C). Protein concentration was determined using the bicinchoninic acid assay (Thermo). Cell extracts (20 μg) were resolved by 12% sodium dodecyl sulfate-polyacrylamide gel electrophoresis (SDS-PAGE), transferred to PVDF membranes, and probed separately with antibodies for Ac-histone H3, Ac-α-tubulin, histone H3, α-tubulin, HDAC1, HDAC6, HDAC8 and GAPDH. […] Antibody signals were detected using an enhanced chemiluminescence system.

CYP1A2 = molecular target: T7, CYP1A2 (Homo sapiens, UniProt P05177); assay: CYP450 inhibition assay; type: in vitro ADME; details: human recombinant enzyme; read-out: IC50 CYP1A2
T7 construct: purchased Reaction Biology Corporation; host or cells: CYP cDNA baculovirus expression systems
T7 sequence (P05177 whole entry): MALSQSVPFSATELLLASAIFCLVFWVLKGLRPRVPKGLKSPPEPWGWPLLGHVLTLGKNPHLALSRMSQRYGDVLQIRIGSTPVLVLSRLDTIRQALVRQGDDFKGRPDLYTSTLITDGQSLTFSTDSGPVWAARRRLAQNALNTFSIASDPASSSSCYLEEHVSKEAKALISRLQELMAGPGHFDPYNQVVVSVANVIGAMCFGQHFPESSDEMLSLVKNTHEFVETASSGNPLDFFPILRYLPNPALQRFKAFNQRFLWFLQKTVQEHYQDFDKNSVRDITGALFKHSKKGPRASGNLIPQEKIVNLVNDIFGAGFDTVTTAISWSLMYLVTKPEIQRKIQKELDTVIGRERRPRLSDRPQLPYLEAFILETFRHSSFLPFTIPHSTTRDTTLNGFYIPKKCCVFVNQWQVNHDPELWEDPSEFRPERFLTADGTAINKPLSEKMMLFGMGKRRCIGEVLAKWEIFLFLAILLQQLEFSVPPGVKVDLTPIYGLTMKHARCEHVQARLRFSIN

CYP2C9 = molecular target: T8, CYP2C9 (Homo sapiens, UniProt P11712); assay: CYP450 inhibition assay; type: in vitro ADME; details: human recombinant enzyme
T8 construct: purchased Reaction Biology Corporation; host or cells: CYP cDNA baculovirus expression systems
T8 sequence (P11712 whole entry): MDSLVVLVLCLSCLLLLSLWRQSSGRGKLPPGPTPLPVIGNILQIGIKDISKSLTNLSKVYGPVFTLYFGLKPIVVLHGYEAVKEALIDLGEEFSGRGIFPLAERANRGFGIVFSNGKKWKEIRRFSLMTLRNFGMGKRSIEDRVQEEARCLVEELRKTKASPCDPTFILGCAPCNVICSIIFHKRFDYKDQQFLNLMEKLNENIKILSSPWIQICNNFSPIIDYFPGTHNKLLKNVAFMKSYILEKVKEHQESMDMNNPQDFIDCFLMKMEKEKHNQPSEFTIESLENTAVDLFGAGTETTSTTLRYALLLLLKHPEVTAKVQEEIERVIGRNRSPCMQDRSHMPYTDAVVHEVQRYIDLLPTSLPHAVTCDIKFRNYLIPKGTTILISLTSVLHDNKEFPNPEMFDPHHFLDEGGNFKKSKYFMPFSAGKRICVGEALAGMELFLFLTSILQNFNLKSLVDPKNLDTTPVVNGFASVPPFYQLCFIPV

CYP2C19 = molecular target: T9, CYP2C19 (Homo sapiens, UniProt P33261); assay: CYP450 inhibition assay; type: in vitro ADME; details: human recombinant enzyme
T9 construct: purchased Reaction Biology Corporation; host or cells: CYP cDNA baculovirus expression systems
Procedure: Assays were performed by Reaction Biology Corporation. […] CYP assays used human recombinant CYP1A2, CYP2C9, CYP2C19, CYP2D6, and CYP3A4 expressed in CYP cDNA baculovirus expression systems. […] Substrates used were 3-cyano-7-ethoxycoumarin for CYP1A2, 2C19, and 2D6; Vivid OOMR Substrate for CYP2C9; and Vivid BOMR Substrate for CYP3A4. hERG inhibition assays involved a binding competition between the tested compounds and a fluorescently labelled compound tracer (Predictor hERG Tracer Red) for membrane-bound hERG (Predictor hERG Membrane). E-4031 served as the positive control.

CYP2D6 = molecular target: T10, CYP2D6 (Homo sapiens, UniProt P10635); assay: CYP450 inhibition assay; type: in vitro ADME; details: human recombinant enzyme
T10 construct: purchased Reaction Biology Corporation; host or cells: CYP cDNA baculovirus expression systems
T10 sequence (P10635 whole entry): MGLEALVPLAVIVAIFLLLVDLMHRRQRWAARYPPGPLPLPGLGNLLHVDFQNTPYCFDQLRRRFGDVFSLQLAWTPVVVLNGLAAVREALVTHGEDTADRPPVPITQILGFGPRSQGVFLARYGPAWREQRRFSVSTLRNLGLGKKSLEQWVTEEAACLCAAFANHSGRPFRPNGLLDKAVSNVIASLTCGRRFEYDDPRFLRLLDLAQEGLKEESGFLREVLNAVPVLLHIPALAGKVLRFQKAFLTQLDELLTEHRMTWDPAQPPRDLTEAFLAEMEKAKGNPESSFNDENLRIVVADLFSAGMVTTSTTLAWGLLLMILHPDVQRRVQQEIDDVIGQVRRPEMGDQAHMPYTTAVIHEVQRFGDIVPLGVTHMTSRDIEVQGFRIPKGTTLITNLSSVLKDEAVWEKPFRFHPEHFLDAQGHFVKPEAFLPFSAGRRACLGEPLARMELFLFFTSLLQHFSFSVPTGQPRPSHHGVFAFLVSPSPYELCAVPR

CYP3A4 = molecular target: T11, CYP3A4 (Homo sapiens, UniProt P08684); assay: CYP450 inhibition assay; type: in vitro ADME; details: human recombinant enzyme
T11 construct: purchased Reaction Biology Corporation; host or cells: CYP cDNA baculovirus expression systems
T11 sequence (P08684 whole entry): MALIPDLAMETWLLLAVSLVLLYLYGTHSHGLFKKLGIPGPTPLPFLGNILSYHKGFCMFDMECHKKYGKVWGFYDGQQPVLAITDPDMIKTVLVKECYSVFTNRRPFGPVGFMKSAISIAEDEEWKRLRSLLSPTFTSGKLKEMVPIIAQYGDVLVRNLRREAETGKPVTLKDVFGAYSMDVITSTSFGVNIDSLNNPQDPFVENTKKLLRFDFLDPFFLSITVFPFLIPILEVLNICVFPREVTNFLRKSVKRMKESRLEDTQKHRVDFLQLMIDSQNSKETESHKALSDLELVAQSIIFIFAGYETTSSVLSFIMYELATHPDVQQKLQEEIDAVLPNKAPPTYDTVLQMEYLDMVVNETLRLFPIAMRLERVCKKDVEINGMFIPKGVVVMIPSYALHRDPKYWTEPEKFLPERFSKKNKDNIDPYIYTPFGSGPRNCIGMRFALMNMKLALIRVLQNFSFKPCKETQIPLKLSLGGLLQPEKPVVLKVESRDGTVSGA

T1 sequence (Q13547 whole entry): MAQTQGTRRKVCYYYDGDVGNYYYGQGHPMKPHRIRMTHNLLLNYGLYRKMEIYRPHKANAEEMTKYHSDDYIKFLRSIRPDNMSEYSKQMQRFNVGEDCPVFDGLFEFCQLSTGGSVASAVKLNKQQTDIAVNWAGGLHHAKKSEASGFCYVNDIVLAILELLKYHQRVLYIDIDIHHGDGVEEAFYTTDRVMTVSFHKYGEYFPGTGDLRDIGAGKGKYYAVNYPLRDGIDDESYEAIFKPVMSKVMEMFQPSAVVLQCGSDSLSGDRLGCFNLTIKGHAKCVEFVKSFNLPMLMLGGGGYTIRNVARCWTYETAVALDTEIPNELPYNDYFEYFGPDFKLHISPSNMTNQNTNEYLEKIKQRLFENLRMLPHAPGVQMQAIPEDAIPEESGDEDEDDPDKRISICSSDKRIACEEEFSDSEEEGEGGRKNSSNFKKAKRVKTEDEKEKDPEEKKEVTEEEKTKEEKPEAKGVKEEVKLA

Work on CC(C)NC(=O)C1CCC(n2c(=NC(=O)c3ccccc3)[nH]c3cc(C=CC(=O)NO)ccc32)CC1 [Compound 3b, (E)-N-(5-((E)-3-(Hydroxyamino)-3-oxoprop-1-en-1-yl)-1-((1S,4S)-4-(isopropylcarbamoyl)cyclohexyl)-1H-benzo[d]imidazol-2(3H)-ylidene)benzamide] yielded an IC50 (HDAC1) of 10800 nM, an IC50 (HDAC6) of 1030 nM and an IC50 (MCF7) of 550 ± 10 nM. For the same compound, the IC50 (c-Src) was 3380 nM, the IC50 (ALK F1174L) was 59 nM and the IC50 (ALK G1202R) was 51 nM. For the same compound, the IC50 (ALK G1269A) was 50 nM, the “acetylation level of α-tubulin” value [1] was “obviously elevated” and the IC50 (CYP1A2) was 12700 nM. It also gave an IC50 (CYP2C9) of 2650 nM, an IC50 (CYP2C19) of 7860 nM and an IC50 (CYP2D6) greater than 10000 nM. For the same compound, the IC50 (CYP3A4) was 9370 nM.
